Laboratory results from ChEMBL document CHEMBL5230094, “Structure-activity relationships of Wee1 inhibitors: A review” (Eur J Med Chem, 2020).

What was measured:
[1] = target: Proto-oncogene tyrosine-protein kinase Src (Homo sapiens, UniProt P12931); assay: Inhibition of c-Src (unknown origin)
[2] = target: T1, Wee1-like protein kinase (Homo sapiens, UniProt P30291); assay: Binding affinity to Wee1 (unknown origin) assessed as dissociation constant
[3] = target: T1, Wee1-like protein kinase; assay: Inhibition of recombinant Wee1 (unknown origin) incubated for 1 hr by TR-FRET assay
[4] = test system: A549; assay: Antiproliferative activity against human A549 cells by MTS based Cell Titer 96 viability assay; format: functional
[5] = target: T1, Wee1-like protein kinase; assay: Inhibition of human full length N-terminal GST tagged Wee1 expressed in E coli
[6] = target: T1, Wee1-like protein kinase; assay: Inhibition of recombinant Wee1 (unknown origin) by TR-FRET assay
[7] = test system: MDA-MB-231; assay: Antiproliferative activity against human MDA-MB-231 cells
[8] = target: T2, Serine/threonine-protein kinase Chk1 (Homo sapiens, UniProt O14757); assay: Inhibition of CHK1 (unknown origin)
T2 sequence (O14757 whole entry): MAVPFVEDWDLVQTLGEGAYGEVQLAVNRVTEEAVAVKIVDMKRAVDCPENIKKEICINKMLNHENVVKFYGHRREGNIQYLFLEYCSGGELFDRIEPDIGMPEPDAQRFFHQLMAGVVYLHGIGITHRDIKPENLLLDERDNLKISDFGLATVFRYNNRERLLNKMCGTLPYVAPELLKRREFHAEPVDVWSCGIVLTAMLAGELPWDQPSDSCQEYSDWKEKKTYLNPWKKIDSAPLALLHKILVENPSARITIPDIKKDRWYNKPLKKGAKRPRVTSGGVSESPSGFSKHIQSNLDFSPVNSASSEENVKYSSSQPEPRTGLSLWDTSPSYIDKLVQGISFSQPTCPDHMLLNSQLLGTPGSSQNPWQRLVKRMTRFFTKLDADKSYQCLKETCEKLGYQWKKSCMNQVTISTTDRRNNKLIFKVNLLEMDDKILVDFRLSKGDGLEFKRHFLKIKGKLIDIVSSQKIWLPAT

T1 sequence (P30291 whole entry): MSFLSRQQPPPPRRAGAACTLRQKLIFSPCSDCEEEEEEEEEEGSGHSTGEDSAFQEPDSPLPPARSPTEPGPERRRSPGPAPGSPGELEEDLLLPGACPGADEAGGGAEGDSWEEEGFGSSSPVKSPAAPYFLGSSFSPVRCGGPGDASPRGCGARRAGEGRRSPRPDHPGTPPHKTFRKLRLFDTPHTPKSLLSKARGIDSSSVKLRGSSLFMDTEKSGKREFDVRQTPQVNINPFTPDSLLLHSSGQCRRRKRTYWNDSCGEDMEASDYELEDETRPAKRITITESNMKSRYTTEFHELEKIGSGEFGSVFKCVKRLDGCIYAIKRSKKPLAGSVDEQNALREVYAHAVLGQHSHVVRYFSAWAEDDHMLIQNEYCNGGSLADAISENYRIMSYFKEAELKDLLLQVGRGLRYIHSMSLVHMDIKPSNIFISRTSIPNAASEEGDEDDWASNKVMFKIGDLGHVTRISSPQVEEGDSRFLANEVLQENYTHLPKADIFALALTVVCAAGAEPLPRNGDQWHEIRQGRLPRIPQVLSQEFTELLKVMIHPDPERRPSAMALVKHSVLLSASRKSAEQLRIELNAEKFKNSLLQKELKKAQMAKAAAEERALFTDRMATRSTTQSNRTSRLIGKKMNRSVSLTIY
Proto-oncogene tyrosine-protein kinase Src, sequence (P12931 2-536 limits assumed): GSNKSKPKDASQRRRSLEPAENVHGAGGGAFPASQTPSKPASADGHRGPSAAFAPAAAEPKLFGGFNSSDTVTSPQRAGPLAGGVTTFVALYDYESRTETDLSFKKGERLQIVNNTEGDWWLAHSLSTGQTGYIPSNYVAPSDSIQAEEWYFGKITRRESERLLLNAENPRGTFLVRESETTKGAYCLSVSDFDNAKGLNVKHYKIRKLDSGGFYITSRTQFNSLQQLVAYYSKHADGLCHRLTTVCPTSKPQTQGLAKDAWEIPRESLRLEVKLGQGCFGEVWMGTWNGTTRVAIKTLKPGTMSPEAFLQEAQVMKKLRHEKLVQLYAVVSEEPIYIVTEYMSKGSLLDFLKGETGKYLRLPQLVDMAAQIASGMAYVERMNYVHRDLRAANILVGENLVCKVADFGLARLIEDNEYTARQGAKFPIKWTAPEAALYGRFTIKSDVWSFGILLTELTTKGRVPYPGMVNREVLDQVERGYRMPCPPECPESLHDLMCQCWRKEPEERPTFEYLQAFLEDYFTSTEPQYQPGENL

| IC50 [1] [nM] | SMILES | other results |
| --- | --- | --- |
| 13 | Cn1c(=O)c(-c2c(Cl)cccc2Cl)cc2cnc(Nc3ccc(CC(N)=O)cc3)nc21 |  |
| 360 | CCN(CC)CCOc1ccc(Nc2ncc3c(C)c(-c4c(C)cccc4C)c(=O)n(C)c3n2)cc1 |  |
| > 50000 | CCN(CC)CCOc1ccc(Nc2ncc3c(C)c(-c4ccccc4Cl)c(=O)n(C)c3n2)cc1 |  |
| 23 | CCN(CC)CCOc1ccc(Nc2ncc3cc(-c4c(C)cccc4C)c(=O)n(C)c3n2)cc1 |  |
| 4 | Cn1c(=O)c(-c2c(Cl)cccc2Cl)cc2cnc(Nc3ccc(OCCCC(=O)O)cc3)nc21 |  |
| 14 | Cc1cccc(C)c1-c1cc2cnc(Nc3ccccc3)nc2n(C)c1=O |  |
| 99 | Cn1c(=O)c(-c2c(Cl)ccc(O)c2Cl)cc2cnc(Nc3ccc(OCCCC(=O)O)cc3)nc21 |  |
|  | CC(=O)NCC(=O)N1[C@@H]2CC[C@H]1c1cc(Nc3ncc(C(F)(F)F)c(NC4CCC4)n3)ccc12 | Kd [2]: 78.7 nM |
|  | C=CCn1c(=O)c2cnc(Nc3ccc(N4CCN(C(=O)OC)CC4)cc3)nc2n1-c1cccc(C(C)(C)O)n1 | IC50 [3]: 27.8 nM |
|  | CCOC(=O)N1CCc2c(sc3nc(SCC(=O)c4ccccc4)n(N)c(=O)c23)C1 | IC50 [4]: 17800 nM; IC50 [5]: 22300 nM |
|  | C=CCn1c(=O)c2cnc(Nc3ccc(CCN(C)C)cc3)nc2n1-c1cccc(C(C)(C)O)n1 | IC50 [6]: 1.7 nM |
|  | COc1cc(Nc2c(C#N)cnc3cc(OCCCN4CCN(C)CC4)c(OC)cc23)c(Cl)cc1Cl [BOSUTINIB] | IC50 [7]: 1800 nM |
|  | CCN(CC)CCOc1ccc(Nc2ncc3cc(-c4c(Cl)cccc4Cl)c(=O)n(C)c3n2)cc1 [PD-0166285] | IC50 [8]: 72 nM |
